Data on 1 substance can be found in patent US20210001143A1, “FOCAL PHOTODYNAMIC THERAPY METHODS” (STEBA MAOR SA, priority 2011, published 2021).

The subject of test [1] is low risk organ-confined prostate cancer. As to the kind of experiment: Vascular-targeted photodynamic therapy (VTP), early treatment effect on 1 week MRI (lack of gadolinium uptake). Format: in vivo, human. To be noted: 4 mg/kg intravenously, light 200 J/cm, men. As for the experimental part: (§1) Men with low risk organ-confined prostate cancer (Gleason 3+3 on minimum 10 core TRUS biopsy) were recruited into two consecutive studies: PCM201 (a dose escalation study) or PCM203 (a confirmatory study). The vascular-targeted photodynamic therapy (“VTP”) procedure, carried out under general anesthesia, involved administration of TOOKAD® Soluble intravenously at 4 mg/kg, which was then activated by low power laser light delivered locally to the prostate via a brachytherapy-style transperineal template with a light density of 200 J/cm. Planned treatment volume (“PTV”, in mls) was determined by the location of tumor on biopsy and by MRI, and varied in volume from less than one lobe, to the whole prostate.
(§2) The Light Density Index (“LDI”) was calculated as LDI=Σ(n)L/PTV, where Σ(n)L is the total length of all illuminating fibers (in cm), and PTV is the planned treatment volume, in mls.
(§3) This was also correlated with the result of 6 month transrectal ultrasound (TRUS)-guided biopsy (positive or negative for any cancer).
(§4) The correlation between LDI and the volume of tissue necrosis at day 7 and with the rate of negative biopsies at Month 6 was assessed in search of a threshold.
(§5) 90 men were treated with a TOOKAD® Soluble dose of 4 mg/kg and a light dose of 200 J/cm in the two studies. Of these 89 were analyzable for LDI.

Test [2] has the same test system. As to the kind of experiment: Vascular-targeted photodynamic therapy (VTP), 6 month TRUS-guided biopsy. The format is in vivo, human. The following applies: study PCM201, 4 mg/kg intravenously, light 200 J/cm, men. The procedure:
as §1, §2, §3, §4, §5

As to “Palladium 3^1-oxo-15-methoxycarbonylmethyl-rhodobacteriochlorin 13^1-(2-sulfoethyl) amide dipotassium salt [TOOKAD® Soluble]”, the “Treatment effect on 1 week MRI as % of PTV” value in test [1] (study PCM201, LDI < 1) was 59 (17) % of PTV; in test [1] (study PCM201, LDI ≥ 1) it was 95 (12) % of PTV; in test [1] (study PCM203, LDI < 1) it was 60 (22) % of PTV; in test [1] (study PCM203, LDI ≥ 1), 94 (28) % of PTV. Besides, the results for the “% of negative biopsies (6 months)” value in test [2] (LDI < 1) and in test [2] (LDI ≥ 1) were 31 (4/17) % and 83 (10/12) %, respectively.
